# Key:
# Test in all cases: Cell growth assay
# Type in all cases: cell-based
# HPAF-II = conditions: Homo sapiens, 72 h, RAF WT, RAS WT, 3-day, read-out: gIC50
# Method in brief: (§1)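 Cells were read with CellTiter-Glo reagent at time zero and after 72 h of exposure. From the change in signal, the concentration giving half-maximal growth inhibition (gIC50) was calculated.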
# C33A = conditions: Homo sapiens, C-33-A, 72 h, RAF WT, RAS WT, 3-day, read-out: gIC50
# Method in brief: as §1
# G401 = conditions: Homo sapiens, G-401, 72 h; G401, RAF WT, RAS WT, 3-day; read-out: gIC50
# Method in brief: as §1
# NCI-H2228 = conditions: Homo sapiens, 72 h; NCI-H2228, RAF WT, RAS WT, 3-day; read-out: gIC50
# Method in brief: as §1
# EFM-19 = conditions: Homo sapiens, 72 h; EFM-19, RAF WT, RAS WT, 3-day; read-out: gIC50
# Method in brief: as §1
# P3HR-1 = conditions: Homo sapiens, 72 h; P3HR-1, RAF WT, RAS WT, 3-day; read-out: gIC50
# Method in brief: as §1
# RD-ES = conditions: Homo sapiens, 72 h, RAF WT, RAS WT, 3-day, read-out: gIC50
# Method in brief: as §1
# NCI-H187 = conditions: Homo sapiens, 72 h; NCI-H187, RAF WT, RAS WT, 3-day; read-out: gIC50
# Method in brief: as §1
# SK-MEL-3 = conditions: Homo sapiens, SK-MEL3, 72 h; SK-MEL-3, BRAF(V600E), RAS WT, 3-day; read-out: gIC50
# Method in brief: as §1
# Raji = conditions: Homo sapiens, 72 h, RAF WT, RAS WT, 3-day, read-out: gIC50
# Method in brief: as §1
# Kato III = conditions: Homo sapiens, 72 h, RAF WT, RAS WT, 3-day, read-out: gIC50
# Method in brief: as §1
# RD = conditions: Homo sapiens, 72 h, RAF WT, RAS WT, 3-day, read-out: gIC50
# Method in brief: as §1
# SCC-13 = conditions: Homo sapiens, 72 h; SCC-13, RAF WT, RAS WT, 3-day; read-out: gIC50
# Method in brief: as §1
# BFTC-905 = conditions: Homo sapiens, 72 h; BFTC-905, RAF WT, NRAS(Q61L), 3-day; read-out: gIC50
# Method in brief: as §1
# CaOV3 = conditions: Homo sapiens, Caov-3, 72 h; CaOV3, RAF WT, RAS WT, 3-day; read-out: gIC50
# Method in brief: as §1
# EB-3 = conditions: Homo sapiens, 72 h; EB-3, RAF WT, RAS WT, 3-day; read-out: gIC50
# Method in brief: as §1
# T-84 = conditions: Homo sapiens, T84, 72 h; T-84, RAF WT, KRAS(G13D), 3-day; read-out: gIC50
# Method in brief: as §1
# NCI-H69 = conditions: Homo sapiens, 72 h; NCI-H69, RAF WT, RAS WT, 3-day; read-out: gIC50
# Method in brief: as §1
# SK-N-F1 = conditions: Homo sapiens, 72 h; SK-N-F1, RAF WT, RAS WT, 3-day; read-out: gIC50
# Method in brief: as §1
# HL-60 = conditions: Homo sapiens, 72 h; HL-60, RAF WT, RAS WT, 3-day; read-out: gIC50
# Method in brief: as §1
# Be(2)C = conditions: Homo sapiens, 72 h, RAF WT, RAS WT, 3-day, read-out: gIC50
# Method in brief: as §1
# SW579 = conditions: Homo sapiens, 72 h; SW579, RAF WT, RAS WT, 3-day; read-out: gIC50
# Method in brief: as §1
# NCI-H322 = conditions: Homo sapiens, 72 h; NCI-H322, RAF WT, RAS WT, 3-day; read-out: gIC50
# Method in brief: as §1
# SCC-15 = conditions: Homo sapiens, 72 h; SCC-15, RAF WT, RAS WT, 3-day; read-out: gIC50
# Method in brief: as §1
# SK-BR-3 = conditions: Homo sapiens, 72 h; SK-BR-3, RAF WT, RAS WT, 3-day; read-out: gIC50
# Method in brief: as §1
# NCI-H661 = conditions: Homo sapiens, 72 h; NCI-H661, RAF WT, RAS WT, 3-day; read-out: gIC50
# Method in brief: as §1
# A549 = conditions: Homo sapiens, 72 h; A549, RAF WT, KRAS(G12S), 3-day; read-out: gIC50
# Method in brief: as §1
# GCT = conditions: Homo sapiens, 72 h, BRAF(V600E), RAS WT, 3-day, read-out: gIC50
# Method in brief: as §1
# HCC-1954 = conditions: Homo sapiens, HCC1954, 72 h; HCC-1954, RAF WT, RAS WT, 3-day; read-out: gIC50
# Method in brief: as §1
# RKO = conditions: Homo sapiens, 72 h, BRAF(V600E), RAS WT, 3-day, read-out: gIC50
# Method in brief: as §1
# SR = conditions: Homo sapiens, 72 h, RAF WT, RAS WT, 3-day, read-out: gIC50
# Method in brief: as §1
# SW684 = conditions: Homo sapiens, 72 h; SW684, RAF WT, RAS WT, 3-day; read-out: gIC50
# Method in brief: as §1
# ARH-77 = conditions: Homo sapiens, 72 h; ARH-77, RAF WT, RAS WT, 3-day; read-out: gIC50
# Method in brief: as §1
# MiaPaCa = conditions: Homo sapiens, MIA PaCa-2, 72 h, RAF WT, RAS WT, 3-day, read-out: gIC50
# Method in brief: as §1
smiles,measurement,setting,value
CC(C)(C)c1nc(-c2cccc(NS(=O)(=O)c3c(F)cccc3F)c2F)c(-c2ccnc(N)n2)s1 [dabrafenib],IC50,HPAF-II,> 10 µM
same,IC50,C33A,> 10 µM
same,IC50,G401,> 10 µM
same,IC50,NCI-H2228,> 10 µM
same,IC50,EFM-19,> 10 µM
same,IC50,P3HR-1,> 10 µM
same,IC50,RD-ES,> 10 µM
same,IC50,NCI-H187,> 10 µM
same,IC50,SK-MEL-3,7 nM
same,IC50,Raji,> 10 µM
same,IC50,Kato III,> 10 µM
same,IC50,RD,> 10 µM
same,IC50,SCC-13,> 10 µM
same,IC50,BFTC-905,> 10 µM
same,IC50,CaOV3,> 10 µM
same,IC50,EB-3,> 10 µM
same,IC50,T-84,> 10 µM
same,IC50,NCI-H69,> 10 µM
same,IC50,SK-N-F1,> 10 µM
same,IC50,HL-60,2180 nM
same,IC50,Be(2)C,> 10 µM
same,IC50,SW579,> 10 µM
same,IC50,NCI-H322,> 10 µM
same,IC50,SCC-15,> 10 µM
same,IC50,SK-BR-3,> 10 µM
same,IC50,NCI-H661,> 10 µM
same,IC50,A549,> 10 µM
same,IC50,GCT,> 10 µM
same,IC50,HCC-1954,> 10 µM
same,IC50,RKO,2520 nM
same,IC50,SR,> 10 µM
same,IC50,SW684,> 10 µM
same,IC50,ARH-77,> 10 µM
same,IC50,MiaPaCa,> 10 µM
